Test results published in the kinase profiling compilation of Christmann-Franck et al. (2016).
Several values for one entry are separate records, joined by “and”; a condition that tells them apart may be missing. Identical values can stand only once.

Legend:
Test in all cases: radiometric filter-binding kinase assay, Kinase HotSpot
Settings in all cases: compound 0.5 µM; ATP 10 µM
TAOK1 (human) = TAOK1 (human) (UniProt Q7L7X3)
PRKD3 (human) = PRKD3 (human) (UniProt O94806)
NUAK2 (human) = NUAK2 (human) (UniProt Q9H093)
NUAK2 (human), sequence (Q9H093 whole entry, looked up): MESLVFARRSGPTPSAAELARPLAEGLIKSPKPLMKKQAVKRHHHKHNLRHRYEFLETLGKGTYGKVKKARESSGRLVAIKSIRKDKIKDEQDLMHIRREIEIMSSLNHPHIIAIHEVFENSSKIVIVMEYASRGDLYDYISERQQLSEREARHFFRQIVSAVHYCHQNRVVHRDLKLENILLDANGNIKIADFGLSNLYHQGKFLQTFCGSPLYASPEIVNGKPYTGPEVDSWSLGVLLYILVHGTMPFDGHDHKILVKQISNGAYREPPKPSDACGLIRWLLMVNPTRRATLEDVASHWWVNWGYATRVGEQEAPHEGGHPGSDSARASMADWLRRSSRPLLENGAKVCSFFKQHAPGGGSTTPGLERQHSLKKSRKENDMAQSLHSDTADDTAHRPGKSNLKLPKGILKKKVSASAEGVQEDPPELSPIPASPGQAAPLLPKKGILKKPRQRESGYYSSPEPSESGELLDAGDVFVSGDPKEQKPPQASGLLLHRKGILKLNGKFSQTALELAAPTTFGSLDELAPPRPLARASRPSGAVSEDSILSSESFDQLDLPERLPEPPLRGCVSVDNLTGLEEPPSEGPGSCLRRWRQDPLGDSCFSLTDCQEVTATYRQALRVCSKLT

BRSK1 (human) = BRSK1 (human) (UniProt Q8TDC3)
VRK1 (human) = VRK1 (human) (UniProt Q99986)
CLK2 (human) = CLK2 (human) (UniProt P49760)
PRKCB1 (human) = PRKCB1 (human) (UniProt P05771)
SGK2 (human) = SGK2 (human) (UniProt Q9HBY8)
EPHA4 (human) = EPHA4 (human) (UniProt P54764)
MAP2K1 (human) = MAP2K1 (human) (UniProt Q02750)
MAP2K1 (human), sequence (Q02750 whole entry, looked up): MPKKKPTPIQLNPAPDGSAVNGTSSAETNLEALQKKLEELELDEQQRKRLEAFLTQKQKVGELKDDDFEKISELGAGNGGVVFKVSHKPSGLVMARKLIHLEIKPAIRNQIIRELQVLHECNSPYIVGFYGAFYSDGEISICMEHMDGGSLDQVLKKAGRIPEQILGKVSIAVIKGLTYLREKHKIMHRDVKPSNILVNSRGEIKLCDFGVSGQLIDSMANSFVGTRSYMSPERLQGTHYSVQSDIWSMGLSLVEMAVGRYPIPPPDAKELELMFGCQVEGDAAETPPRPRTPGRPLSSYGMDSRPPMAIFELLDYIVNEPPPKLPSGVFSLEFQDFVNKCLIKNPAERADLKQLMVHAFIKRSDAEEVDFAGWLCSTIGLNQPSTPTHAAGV

PRKG1 (human) = PRKG1 (human) (UniProt Q13976)
LCK (human) = LCK (human) (UniProt P06239)
IKBKE (human) = IKBKE (human) (UniProt Q14164)
IKBKE (human), sequence (Q14164 whole entry, looked up): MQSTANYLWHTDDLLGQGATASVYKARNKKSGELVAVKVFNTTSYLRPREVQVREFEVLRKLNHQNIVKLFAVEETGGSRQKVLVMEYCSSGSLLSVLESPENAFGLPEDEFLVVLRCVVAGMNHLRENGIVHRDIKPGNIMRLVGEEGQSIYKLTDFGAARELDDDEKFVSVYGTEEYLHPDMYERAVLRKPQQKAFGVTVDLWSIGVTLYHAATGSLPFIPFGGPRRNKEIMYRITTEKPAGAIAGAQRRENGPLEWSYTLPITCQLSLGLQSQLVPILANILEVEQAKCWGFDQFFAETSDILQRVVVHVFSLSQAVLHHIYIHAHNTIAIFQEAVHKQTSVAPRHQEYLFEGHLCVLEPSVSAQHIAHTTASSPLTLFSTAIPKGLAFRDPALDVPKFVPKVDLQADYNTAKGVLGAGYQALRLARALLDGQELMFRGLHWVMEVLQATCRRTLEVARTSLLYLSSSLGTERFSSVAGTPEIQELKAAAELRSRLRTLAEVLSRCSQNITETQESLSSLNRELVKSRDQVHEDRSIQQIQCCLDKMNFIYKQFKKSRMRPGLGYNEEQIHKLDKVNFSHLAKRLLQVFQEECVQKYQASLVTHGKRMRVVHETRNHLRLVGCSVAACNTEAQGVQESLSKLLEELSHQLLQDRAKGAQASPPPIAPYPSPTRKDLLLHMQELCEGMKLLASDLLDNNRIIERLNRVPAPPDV

MLTK (human) = MLTK (human) (UniProt Q9NYL2)
CDK4 CCND1 (human) = CDK4 CCND1 (human) (UniProt P24385+P11802)
TTK (human) = TTK (human) (UniProt P33981)
PRKCD (human) = PRKCD (human) (UniProt Q05655)
EPHB1 (human) = EPHB1 (human) (UniProt P54762)
NTRK3 (human) = NTRK3 (human) (UniProt Q16288)
PRKCE (human) = PRKCE (human) (UniProt Q02156)
BMX (human) = BMX (human) (UniProt P51813)
DMPK (human) = DMPK (human) (UniProt Q09013)
DMPK (human), sequence (Q09013 whole entry, looked up): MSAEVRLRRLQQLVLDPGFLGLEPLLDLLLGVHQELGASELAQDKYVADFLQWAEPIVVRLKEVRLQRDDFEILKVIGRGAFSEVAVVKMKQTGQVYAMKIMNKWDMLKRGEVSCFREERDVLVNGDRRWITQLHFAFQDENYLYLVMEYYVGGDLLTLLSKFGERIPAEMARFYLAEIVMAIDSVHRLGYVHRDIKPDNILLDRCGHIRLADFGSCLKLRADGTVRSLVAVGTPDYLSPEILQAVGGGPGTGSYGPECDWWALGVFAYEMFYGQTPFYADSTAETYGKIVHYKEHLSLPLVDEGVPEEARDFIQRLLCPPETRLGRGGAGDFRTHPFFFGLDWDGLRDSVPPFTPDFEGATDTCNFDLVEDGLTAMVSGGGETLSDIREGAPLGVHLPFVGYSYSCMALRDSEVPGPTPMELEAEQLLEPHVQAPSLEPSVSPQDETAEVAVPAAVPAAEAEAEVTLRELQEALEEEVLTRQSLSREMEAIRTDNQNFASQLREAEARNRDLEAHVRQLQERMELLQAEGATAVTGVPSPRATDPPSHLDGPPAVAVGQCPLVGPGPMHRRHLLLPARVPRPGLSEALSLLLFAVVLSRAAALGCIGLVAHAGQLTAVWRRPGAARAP

PBK (human) = PBK (human) (UniProt Q96KB5)
PBK (human), sequence (Q96KB5 whole entry, looked up): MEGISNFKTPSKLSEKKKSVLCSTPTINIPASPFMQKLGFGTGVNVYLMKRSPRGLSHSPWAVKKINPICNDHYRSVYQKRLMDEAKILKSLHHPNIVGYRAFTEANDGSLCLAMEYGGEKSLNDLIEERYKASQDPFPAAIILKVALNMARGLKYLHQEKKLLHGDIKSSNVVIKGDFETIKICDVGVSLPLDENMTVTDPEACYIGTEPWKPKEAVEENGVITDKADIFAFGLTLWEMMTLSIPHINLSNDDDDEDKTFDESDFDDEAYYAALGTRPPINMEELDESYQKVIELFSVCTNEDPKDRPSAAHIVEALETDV

CAMK2D (human) = CAMK2D (human) (UniProt Q13557)
MAP3K7 TAB1 (human) = MAP3K7 TAB1 (human) (UniProt O43318+Q15750)
SLK (human) = SLK (human) (UniProt Q9H2G2)
NEK2 (human) = NEK2 (human) (UniProt P51955)
STK4 (human) = STK4 (human) (UniProt Q13043)
STK4 (human), sequence (Q13043 whole entry, looked up): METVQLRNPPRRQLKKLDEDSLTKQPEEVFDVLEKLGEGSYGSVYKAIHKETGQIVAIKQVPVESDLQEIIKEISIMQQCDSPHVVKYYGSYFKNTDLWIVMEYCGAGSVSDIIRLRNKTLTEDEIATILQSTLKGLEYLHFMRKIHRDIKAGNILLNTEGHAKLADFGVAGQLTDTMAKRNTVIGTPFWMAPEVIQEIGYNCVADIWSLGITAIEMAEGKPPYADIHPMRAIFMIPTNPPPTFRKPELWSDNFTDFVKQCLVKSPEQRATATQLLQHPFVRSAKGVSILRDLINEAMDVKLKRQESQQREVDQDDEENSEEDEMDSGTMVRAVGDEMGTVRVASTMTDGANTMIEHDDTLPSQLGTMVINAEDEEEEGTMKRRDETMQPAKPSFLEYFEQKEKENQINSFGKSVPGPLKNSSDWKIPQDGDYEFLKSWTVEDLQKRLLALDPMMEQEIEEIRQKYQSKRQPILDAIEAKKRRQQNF

DAPK1 (human) = DAPK1 (human) (UniProt P53355)
CSK (human) = CSK (human) (UniProt P41240)
CDC42BPB (human) = CDC42BPB (human) (UniProt Q9Y5S2)
YES1 (human) = YES1 (human) (UniProt P07947)
AKT2 (human) = AKT2 (human) (UniProt P31751)
ROCK1 (human) = ROCK1 (human) (UniProt Q13464)
ROCK1 (human), sequence (Q13464 whole entry, looked up): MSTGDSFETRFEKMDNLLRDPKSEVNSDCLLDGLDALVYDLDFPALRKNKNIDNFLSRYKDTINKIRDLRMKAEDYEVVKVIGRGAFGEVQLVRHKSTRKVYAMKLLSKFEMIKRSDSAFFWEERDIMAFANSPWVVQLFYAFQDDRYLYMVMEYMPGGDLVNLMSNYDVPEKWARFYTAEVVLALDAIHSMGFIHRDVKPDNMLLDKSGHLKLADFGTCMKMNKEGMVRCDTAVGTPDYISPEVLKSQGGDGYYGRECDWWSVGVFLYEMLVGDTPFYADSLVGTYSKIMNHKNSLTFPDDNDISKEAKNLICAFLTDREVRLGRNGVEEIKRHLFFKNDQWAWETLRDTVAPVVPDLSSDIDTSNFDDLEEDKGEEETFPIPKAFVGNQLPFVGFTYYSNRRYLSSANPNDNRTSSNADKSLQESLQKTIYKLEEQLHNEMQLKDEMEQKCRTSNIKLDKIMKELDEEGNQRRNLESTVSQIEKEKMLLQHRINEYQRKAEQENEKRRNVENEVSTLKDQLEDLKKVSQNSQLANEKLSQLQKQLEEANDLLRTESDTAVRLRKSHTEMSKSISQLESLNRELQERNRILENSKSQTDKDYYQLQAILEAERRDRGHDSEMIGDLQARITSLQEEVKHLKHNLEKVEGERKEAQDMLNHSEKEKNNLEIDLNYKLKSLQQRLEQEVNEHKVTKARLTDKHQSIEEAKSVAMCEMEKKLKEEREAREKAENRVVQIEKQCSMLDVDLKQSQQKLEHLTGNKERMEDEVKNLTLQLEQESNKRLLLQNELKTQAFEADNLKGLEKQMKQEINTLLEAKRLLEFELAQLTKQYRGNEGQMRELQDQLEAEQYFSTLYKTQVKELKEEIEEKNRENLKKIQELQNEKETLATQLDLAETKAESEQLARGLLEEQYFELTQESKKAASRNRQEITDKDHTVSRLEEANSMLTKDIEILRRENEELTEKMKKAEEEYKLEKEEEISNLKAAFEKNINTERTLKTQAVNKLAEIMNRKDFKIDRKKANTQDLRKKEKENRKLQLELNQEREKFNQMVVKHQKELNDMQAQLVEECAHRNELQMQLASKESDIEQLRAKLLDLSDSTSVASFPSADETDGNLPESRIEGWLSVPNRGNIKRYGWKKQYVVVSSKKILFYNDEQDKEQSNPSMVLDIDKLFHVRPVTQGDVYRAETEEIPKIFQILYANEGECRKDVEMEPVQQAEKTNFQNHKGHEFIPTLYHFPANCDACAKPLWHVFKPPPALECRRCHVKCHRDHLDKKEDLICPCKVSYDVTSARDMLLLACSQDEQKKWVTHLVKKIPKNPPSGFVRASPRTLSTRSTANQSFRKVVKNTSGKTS

PRKG2 (human) = PRKG2 (human) (UniProt Q13237)
GSG2 (human) = GSG2 (human) (UniProt Q8TF76)
GRK6 (human) = GRK6 (human) (UniProt P43250)
SRMS (human) = SRMS (human) (UniProt Q9H3Y6)
SRMS (human), sequence (Q9H3Y6 whole entry, looked up): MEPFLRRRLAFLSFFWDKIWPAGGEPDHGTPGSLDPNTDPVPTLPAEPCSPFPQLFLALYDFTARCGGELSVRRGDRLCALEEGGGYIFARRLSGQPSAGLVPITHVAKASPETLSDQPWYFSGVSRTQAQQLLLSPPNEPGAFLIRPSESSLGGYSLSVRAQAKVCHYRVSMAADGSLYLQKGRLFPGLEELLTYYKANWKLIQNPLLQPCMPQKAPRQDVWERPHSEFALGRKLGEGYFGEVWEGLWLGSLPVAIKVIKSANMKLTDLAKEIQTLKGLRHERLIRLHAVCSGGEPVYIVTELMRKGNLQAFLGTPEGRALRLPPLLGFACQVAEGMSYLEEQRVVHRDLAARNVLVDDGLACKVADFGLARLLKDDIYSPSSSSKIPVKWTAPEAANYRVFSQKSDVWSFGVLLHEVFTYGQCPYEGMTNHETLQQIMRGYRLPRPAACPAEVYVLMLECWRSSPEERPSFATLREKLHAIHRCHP

RPS6KA5 KD2 (human) = RPS6KA5 KD2 (human) (UniProt O75582)
LIMK1 (human) = LIMK1 (human) (UniProt P53667)
NEK9 (human) = NEK9 (human) (UniProt Q8TD19)

## Nc1cccc(-c2cc3c(Oc4cccc(O)c4)ncnc3[nH]2)c1
TAOK1 (human)
  residual activity: 142%
PRKD3 (human)
  residual activity: 91%
NUAK2 (human)
  residual activity: 90.3%
BRSK1 (human)
  residual activity: 83.1%
VRK1 (human)
  residual activity: 81.6%
CLK2 (human)
  residual activity: 98.8%
PRKCB1 (human)
  residual activity: 113%
SGK2 (human)
  residual activity: 96.2%
EPHA4 (human)
  residual activity: 48.3%
MAP2K1 (human)
  residual activity: 76.3%
PRKG1 (human)
  residual activity: 103%
LCK (human)
  residual activity: 24.2%
IKBKE (human)
  residual activity: 88.1%
MLTK (human)
  residual activity: 13.9%
CDK4 CCND1 (human)
  residual activity: 88.7%
TTK (human)
  residual activity: 104%
PRKCD (human)
  residual activity: 95.7%
EPHB1 (human)
  residual activity: 40%
NTRK3 (human)
  residual activity: 63.3%
PRKCE (human)
  residual activity: 97.4%
BMX (human)
  residual activity: 24.3%
DMPK (human)
  residual activity: 95.2%
PBK (human)
  residual activity: 93.9%
CAMK2D (human)
  residual activity: 99.8%
MAP3K7 TAB1 (human)
  residual activity: 63%
SLK (human)
  residual activity: 64.1%
NEK2 (human)
  residual activity: 98%
STK4 (human)
  residual activity: 94.4%
DAPK1 (human)
  residual activity: 89.1%
CSK (human)
  residual activity: 43.6%
CDC42BPB (human)
  residual activity: 93.5%
YES1 (human)
  residual activity: 6.05%
AKT2 (human)
  residual activity: 109%
ROCK1 (human)
  residual activity: 94.1%
PRKG2 (human)
  residual activity: 108%
GSG2 (human)
  residual activity: 93.3%
GRK6 (human)
  residual activity: 98%
SRMS (human)
  residual activity: 94.4%
RPS6KA5 KD2 (human)
  residual activity: 83.6%
LIMK1 (human)
  residual activity: 22.1%
NEK9 (human)
  residual activity: 103%

## O=c1cc(N2CCOCC2)oc2c1ccc1ccccc12
TAOK1 (human)
  residual activity: 97.5%
PRKD3 (human)
  residual activity: 98.8%
NUAK2 (human)
  residual activity: 120%
BRSK1 (human)
  residual activity: 100%
VRK1 (human)
  residual activity: 93.3%
CLK2 (human)
  residual activity: 101%
PRKCB1 (human)
  residual activity: 93.4%
SGK2 (human)
  residual activity: 102%
EPHA4 (human)
  residual activity: 94.4%
MAP2K1 (human)
  residual activity: 99.3%
PRKG1 (human)
  residual activity: 84.5% and 94.6%
LCK (human)
  residual activity: 99.2%
IKBKE (human)
  residual activity: 101%
MLTK (human)
  residual activity: 98%
CDK4 CCND1 (human)
  residual activity: 95.6%
TTK (human)
  residual activity: 103%
PRKCD (human)
  residual activity: 95.1%
EPHB1 (human)
  residual activity: 104%
NTRK3 (human)
  residual activity: 103%
PRKCE (human)
  residual activity: 89.6%
BMX (human)
  residual activity: 92.7%
DMPK (human)
  residual activity: 105%
PBK (human)
  residual activity: 103%
CAMK2D (human)
  residual activity: 99.9%
MAP3K7 TAB1 (human)
  residual activity: 98.3%
SLK (human)
  residual activity: 102%
NEK2 (human)
  residual activity: 94.8%
STK4 (human)
  residual activity: 99.5%
DAPK1 (human)
  residual activity: 90.9%
CSK (human)
  residual activity: 101%
CDC42BPB (human)
  residual activity: 98.3%
YES1 (human)
  residual activity: 98.7%
AKT2 (human)
  residual activity: 98.9%
ROCK1 (human)
  residual activity: 94.2%
PRKG2 (human)
  residual activity: 102%
GSG2 (human)
  residual activity: 85.6%
GRK6 (human)
  residual activity: 93.8%
SRMS (human)
  residual activity: 97.1%
RPS6KA5 KD2 (human)
  residual activity: 103%
LIMK1 (human)
  residual activity: 98%
NEK9 (human)
  residual activity: 102%

## CC(=O)c1ccc(N2CCOCC2)cc1O
TAOK1 (human)
  residual activity: 99.4%
PRKD3 (human)
  residual activity: 98.4%
NUAK2 (human)
  residual activity: 104%
BRSK1 (human)
  residual activity: 97.6%
VRK1 (human)
  residual activity: 98.1%
CLK2 (human)
  residual activity: 102%
PRKCB1 (human)
  residual activity: 96.3%
SGK2 (human)
  residual activity: 101%
EPHA4 (human)
  residual activity: 101%
MAP2K1 (human)
  residual activity: 95.2%
PRKG1 (human)
  residual activity: 100% and 84.1%
LCK (human)
  residual activity: 100%
IKBKE (human)
  residual activity: 105%
MLTK (human)
  residual activity: 97.8%
CDK4 CCND1 (human)
  residual activity: 94.4%
TTK (human)
  residual activity: 103%
PRKCD (human)
  residual activity: 97.4%
EPHB1 (human)
  residual activity: 103%
NTRK3 (human)
  residual activity: 101%
PRKCE (human)
  residual activity: 93.4%
BMX (human)
  residual activity: 90.6%
DMPK (human)
  residual activity: 105%
PBK (human)
  residual activity: 113%
CAMK2D (human)
  residual activity: 100%
MAP3K7 TAB1 (human)
  residual activity: 98.6%
SLK (human)
  residual activity: 105%
NEK2 (human)
  residual activity: 81.3%
STK4 (human)
  residual activity: 102%
DAPK1 (human)
  residual activity: 92.8%
CSK (human)
  residual activity: 99.1%
CDC42BPB (human)
  residual activity: 87.2%
YES1 (human)
  residual activity: 100%
AKT2 (human)
  residual activity: 96.2%
ROCK1 (human)
  residual activity: 92.9%
PRKG2 (human)
  residual activity: 107%
GSG2 (human)
  residual activity: 79.6%
GRK6 (human)
  residual activity: 100%
SRMS (human)
  residual activity: 94.7%
RPS6KA5 KD2 (human)
  residual activity: 105%
LIMK1 (human)
  residual activity: 93.6%
NEK9 (human)
  residual activity: 93.9%

## Cc1ccc(S(=O)(=O)/C=C/C#N)cc1
TAOK1 (human)
  residual activity: 96.5%
PRKD3 (human)
  residual activity: 96.1%
NUAK2 (human)
  residual activity: 88.4%
BRSK1 (human)
  residual activity: 97.2%
VRK1 (human)
  residual activity: 105%
CLK2 (human)
  residual activity: 103%
PRKCB1 (human)
  residual activity: 101%
SGK2 (human)
  residual activity: 112%
EPHA4 (human)
  residual activity: 86.1%
MAP2K1 (human)
  residual activity: 93.9%
PRKG1 (human)
  residual activity: 95.8% and 96.7%
LCK (human)
  residual activity: 93.7%
IKBKE (human)
  residual activity: 101%
MLTK (human)
  residual activity: 94.7%
CDK4 CCND1 (human)
  residual activity: 103%
TTK (human)
  residual activity: 107%
PRKCD (human)
  residual activity: 95.6%
EPHB1 (human)
  residual activity: 100%
NTRK3 (human)
  residual activity: 95.5%
PRKCE (human)
  residual activity: 106%
BMX (human)
  residual activity: 105%
DMPK (human)
  residual activity: 89%
PBK (human)
  residual activity: 83.2%
CAMK2D (human)
  residual activity: 102%
MAP3K7 TAB1 (human)
  residual activity: 99.9%
SLK (human)
  residual activity: 101%
NEK2 (human)
  residual activity: 101%
STK4 (human)
  residual activity: 94.7%
DAPK1 (human)
  residual activity: 100%
CSK (human)
  residual activity: 97.2%
CDC42BPB (human)
  residual activity: 96.4%
YES1 (human)
  residual activity: 94.2%
AKT2 (human)
  residual activity: 94.9%
ROCK1 (human)
  residual activity: 93.2%
PRKG2 (human)
  residual activity: 102%
GSG2 (human)
  residual activity: 101%
GRK6 (human)
  residual activity: 112%
SRMS (human)
  residual activity: 98.8%
RPS6KA5 KD2 (human)
  residual activity: 109%
LIMK1 (human)
  residual activity: 97.1%
NEK9 (human)
  residual activity: 95.6%

## c1ccc(-c2n[nH]c3c2oc2ccccc23)cc1
TAOK1 (human)
  residual activity: 121%
PRKD3 (human)
  residual activity: 99.6%
NUAK2 (human)
  residual activity: 95.2%
BRSK1 (human)
  residual activity: 92.4%
VRK1 (human)
  residual activity: 83.1%
CLK2 (human)
  residual activity: 94.8%
PRKCB1 (human)
  residual activity: 103%
SGK2 (human)
  residual activity: 93%
EPHA4 (human)
  residual activity: 95.5%
MAP2K1 (human)
  residual activity: 96.4%
PRKG1 (human)
  residual activity: 102% and 103%
LCK (human)
  residual activity: 99.3%
IKBKE (human)
  residual activity: 101%
MLTK (human)
  residual activity: 96.2%
CDK4 CCND1 (human)
  residual activity: 87.9%
TTK (human)
  residual activity: 95.7%
PRKCD (human)
  residual activity: 96.7%
EPHB1 (human)
  residual activity: 103%
NTRK3 (human)
  residual activity: 42.7%
PRKCE (human)
  residual activity: 86%
BMX (human)
  residual activity: 106%
DMPK (human)
  residual activity: 99.5%
PBK (human)
  residual activity: 94.8%
CAMK2D (human)
  residual activity: 94.5%
MAP3K7 TAB1 (human)
  residual activity: 104%
SLK (human)
  residual activity: 107%
NEK2 (human)
  residual activity: 99.8%
STK4 (human)
  residual activity: 99.8%
DAPK1 (human)
  residual activity: 71%
CSK (human)
  residual activity: 92.6%
CDC42BPB (human)
  residual activity: 99%
YES1 (human)
  residual activity: 86.1%
AKT2 (human)
  residual activity: 112%
ROCK1 (human)
  residual activity: 99.1%
PRKG2 (human)
  residual activity: 109%
GSG2 (human)
  residual activity: 99.3%
GRK6 (human)
  residual activity: 102%
SRMS (human)
  residual activity: 99.5%
RPS6KA5 KD2 (human)
  residual activity: 94.9%
LIMK1 (human)
  residual activity: 71.2%
NEK9 (human)
  residual activity: 99%
